These results are taken from ChEMBL document CHEMBL1201862, “PubChem BioAssay data set” (2004).

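96-well plates; 48 h exposure; 5 concentrations. Endpoints by linear interpolation between flanking doses. Not reached: highest tested concentration assigned. GI50: concentration for 50% inhibition of growth.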 Calls of active or inactive are those of the source. Rule as the data show it: active = GI50 up to about 1.1 µM and inactive = higher.

Holding throughout (assay): NCI anticancer screen, dose series, 48 h
For assay [1], the system named is DMS-273.
In assay [2] the test system is EKVX.
Assay [3] has as its system HL-60.
In assay [4] the test system is HOP-92.
Assay [5] has as its system MOLT-4.
Assay [6] relates to NCI-H226.
Assay [7] has as its system NCI-H460.
Assay [8] concerns OVCAR-3.
Assay [9] has as its system OVCAR-4.
The subject of assay [10] is SF-268.
The subject of assay [11] is SK-MEL-2.
Assay [12] relates to SK-MEL-5.
In assay [13] the test system is SNB-75.
The test system of assay [14] is SR.
For assay [15], the system named is SW-620.
The subject of assay [16] is TK-10.
Assay [17] has as its system MDA-MB-435.
The subject of assay [18] is PC-3.
For assay [19], the system named is SK-OV-3.
The test system of assay [20] is T47D.

For `COc1ccc2c(c1OC)C1=C(C2=O)c2cc3c(cc2CCN1)OCO3`, the GI50 in assay [1] was 24.2 µM (inactive); in [2], 46.9 µM (inactive); in [3] it was 19.2 µM (inactive); in assay [4], 58.6 µM (inactive); in [5], 21.6 µM (inactive); in assay [6] it was 2.9 µM (inactive). Besides, the GI50 is 32.4 µM (inactive) in [7]; 31.6 µM (inactive) in assay [8]; 4.35 µM (inactive) in [9]; 41.9 µM (inactive) in [10]; 29 µM (inactive) in assay [11]; 33.1 µM (inactive) in assay [12]. In addition, the GI50 was 2.74 µM (inactive) in assay [13], 21 µM (inactive) in assay [14], 22.5 µM (inactive) in [15] and 54.1 µM (inactive) in assay [16].
Regarding `O=C1C(c2cnc3ccccc3n2)=C(O)c2ccccc21`, the GI50 in assay [1] is 0.281 µM (active); in assay [2], 19.1 µM (inactive); in [3] it was > 60.4 µM (inactive); in assay [4], > 100 µM (inactive); in [17], 4.19 µM (inactive); in assay [5], > 70.5 µM (inactive). Besides, the GI50 in assay [6] was > 100 µM (inactive); in assay [7] it was 6.9 µM (inactive); in assay [8], > 100 µM (inactive); in assay [9], > 53.6 µM (inactive); in assay [18] it was > 46.6 µM (inactive); in [10], > 93.8 µM (inactive). In addition, the GI50 in [11] is > 100 µM (inactive); in [12] it was 9.75 µM (inactive); in [19], > 46.5 µM (inactive); in assay [13] it was 22 µM (inactive); in [14], > 59.7 µM (inactive); in assay [15], > 56.2 µM (inactive). In addition, the results for the GI50 in assay [20] and in assay [16] were 83.6 µM (inactive) and 18.3 µM (inactive), respectively.
Regarding `COc1ccc(/C=N/Nc2nc(-c3cc4oc(=O)n(C)c4cc3Cl)cs2)cc1OC`, the GI50 was 11.9 µM (inactive) in assay [1]; 9.51 µM (inactive) in [2]; 15.7 µM (inactive) in [3]; 25.4 µM (inactive) in assay [4]; 9.75 µM (inactive) in [5]; 20.7 µM (inactive) in assay [7]. The GI50 in [8] is 9.95 µM (inactive); in assay [9] it was 11.2 µM (inactive); in [10], 35.3 µM (inactive); in assay [11], 53.1 µM (inactive); in assay [12] it was 2.36 µM (inactive); in assay [19] it was > 100 µM (inactive). Moreover, the GI50 was 28.7 µM (inactive) in assay [13], 77.4 µM (inactive) in [14], 44.1 µM (inactive) in assay [15] and 36.7 µM (inactive) in assay [16].
`Brc1ccccc2cc(-c3ccccc3)nc1-2`: the GI50 in assay [1] is 4.35 µM (inactive); in assay [2], 11.5 µM (inactive); in [3] it was 1.27 µM (inactive); in [4] it was 3.32 µM (inactive); in assay [17] it was 9.95 µM (inactive); in [5] it was 1.53 µM (inactive). Also, the GI50 is 5.05 µM (inactive) in [6]; 11.9 µM (inactive) in assay [7]; 2.16 µM (inactive) in assay [8]; 2.9 µM (inactive) in [9]; 13.5 µM (inactive) in assay [18]; 4.85 µM (inactive) in [10]. Further, the GI50 is 4.61 µM (inactive) in assay [11]; 6.55 µM (inactive) in assay [12]; 8.69 µM (inactive) in assay [19]; 11.6 µM (inactive) in assay [13]; 2.07 µM (inactive) in [15]; 7.57 µM (inactive) in [16].
Consider `CC1(C)CC(Nc2ccc(Nc3ccccc3)cc2)CC(C)(C)N1`, for which the GI50 in assay [1] is 41.7 µM (inactive); in [2] it was 34.2 µM (inactive); in assay [3], 6.97 µM (inactive); in assay [4] it was 12 µM (inactive); in assay [17], 16.8 µM (inactive); in [5], 18.1 µM (inactive). The GI50 in assay [6] is 17.1 µM (inactive); in assay [7], 27.9 µM (inactive); in assay [8], 18.4 µM (inactive); in [9], 34.2 µM (inactive); in assay [18], 11.5 µM (inactive); in assay [10] it was 43.3 µM (inactive). In addition, the GI50 is 23.8 µM (inactive) in assay [11]; 15.2 µM (inactive) in assay [12]; > 100 µM (inactive) in [19]; 37.6 µM (inactive) in assay [13]; 14.6 µM (inactive) in [14]; 21.8 µM (inactive) in [15]. Besides, the figures for the GI50 in [20] and in assay [16] were 16 µM (inactive) and 32.8 µM (inactive), respectively.
Consider `Cc1ccc(N(C(=O)CC(=O)N2N=C(c3ccccc3)C(/N=N/c3ccc([N+](=O)[O-])cc3)C2=O)C(=O)c2ccc(Cl)cc2)cc1` (stereo not given), for which the GI50 in assay [1] was 5.94 µM (inactive); in assay [2], 99.5 µM (inactive); in assay [3], 19.2 µM (inactive); in assay [4], 22.5 µM (inactive); in assay [5], > 42.1 µM (inactive); in assay [6], 20.7 µM (inactive). Further, the GI50 in assay [7] is 19 µM (inactive); in [8] it was 24 µM (inactive); in [9], 36.1 µM (inactive); in assay [10], 9.04 µM (inactive); in assay [11], > 38.8 µM (inactive); in assay [12], 16.9 µM (inactive). Moreover, the GI50 in [19] is 12.2 µM (inactive); in assay [13] it was 10.4 µM (inactive); in assay [14] it was 1.66 µM (inactive); in [15], 21.6 µM (inactive); in [16], 10.9 µM (inactive).
For `CCOc1cc[n+]([C-](C#N)C#N)cc1`, the GI50 in assay [1], in assay [2], in [3], in [4], in assay [5] and in assay [6] was > 100 µM (inactive) each time. The GI50 in assay [7], in assay [8], in [9], in assay [10], in [12] and in [19] was > 100 µM (inactive) throughout. Moreover, the GI50 in assay [13], in assay [14], in assay [15] and in [16] was > 100 µM (inactive) each time.
Regarding `N=C(N)NCCCC(Nc1c2ccccc2nc2ccccc12)C(=O)O` (stereo not given), the GI50 in [1] is > 100 µM (inactive); in assay [2], > 100 µM (inactive); in [3] it was 26.5 µM (inactive); in assay [4], > 100 µM (inactive); in assay [5], 86.7 µM (inactive); in [6] it was > 100 µM (inactive). Further, the GI50 in assay [7] was > 100 µM (inactive); in assay [8], 82.6 µM (inactive); in [9], 3.51 µM (inactive); in assay [10], > 100 µM (inactive); in assay [11] it was > 100 µM (inactive); in assay [13], > 100 µM (inactive). Besides, the GI50 in [14] is > 100 µM (inactive); in assay [15], > 100 µM (inactive); in [16] it was 53.7 µM (inactive).
Regarding `CC(C)(C)C1=CC(=N/N=c2\scc(-c3ccccc3)n2-c2ccccc2)C=C(C(C)(C)C)C1=O`, the GI50 in assay [1], in assay [2], in assay [3], in assay [4], in assay [5] and in [6] was > 100 µM (inactive) in each case. For the same compound, the GI50 in assay [7], in [8], in [9], in assay [10], in [11] and in assay [12] was > 100 µM (inactive) in each case. Also, the GI50 was > 100 µM (inactive) in [19]; > 100 µM (inactive) in [13]; > 100 µM (inactive) in assay [14]; 86.5 µM (inactive) in assay [15]; > 100 µM (inactive) in assay [16].
For `COC1(OC)C2(Cl)C(Cl)=C(Cl)C1(Cl)C1C2C2CC1(C(=O)O)c1ccccc12` (stereo not given), the GI50 is 19 µM (inactive) in [1]; 22.1 µM (inactive) in assay [3]; 35.6 µM (inactive) in [4]; 13.6 µM (inactive) in [5]; 26.2 µM (inactive) in assay [6]; 20.7 µM (inactive) in assay [7]. The GI50 in [8] was 18.2 µM (inactive); in assay [9], 15 µM (inactive); in assay [10] it was 27.6 µM (inactive); in [12] it was 15.9 µM (inactive); in assay [19], 33.3 µM (inactive); in assay [14] it was 9.55 µM (inactive). For the same compound, the figures for the GI50 in assay [15] and in [16] were 18.8 µM (inactive) and 29.1 µM (inactive), respectively.
Take `O=C(NNc1ccccc1)/C(=C/c1ccc2c(c1)OCO2)NC(=O)c1ccccc1`: the GI50 in assay [1] was > 100 µM (inactive); in assay [2] it was > 100 µM (inactive); in assay [3] it was > 100 µM (inactive); in assay [4] it was > 100 µM (inactive); in assay [5], 55 µM (inactive); in assay [6], 96.2 µM (inactive). Besides, the GI50 in assay [7] was > 100 µM (inactive); in assay [8] it was 69 µM (inactive); in [9] it was 66.2 µM (inactive); in [10] it was > 100 µM (inactive); in assay [11] it was > 100 µM (inactive); in [12] it was > 100 µM (inactive). Besides, the GI50 was > 100 µM (inactive) in assay [19], > 100 µM (inactive) in assay [13], 32.2 µM (inactive) in [14] and > 100 µM (inactive) in [16].
